Measured values reported in patent US10413576B2, “Therapy for use in the treatment of tumors, acquired immunodeficiency syndrome and leukemias by dual immune biostimulation” (priority 2014, dated 2019).
“Also recorded” adds a separate entry of the source.

Tested on: peripheral blood mononuclear cells (PBMC)
Assay: PBMC cell proliferation analysis (BrdU, cytofluorimetry)
Format: cell-based, human
Details: PBMC proliferative response vs absence of stimulation (baseline); cut-off P.I. 2
Procedure: Next, peripheral blood mononuclear cells were separated. The peripheral blood mononuclear cells (PBMC) were separated by density gradient centrifugation. For this aim, 20 ml of “buffy coat” of healthy donors from the immune-transfusion Service of Ospedale di Borgomanero (Italy) were used for each experiment, thus obtaining an average yield of 200×10^6 PBMC/buffy. The amount of separated cells was determined by cell count in Burker's chambers, using Turk's dye, which allows to discriminating between mononuclear and polymorphonuclear cells. […]
Then, the cell proliferation analysis was performed. Cell proliferation was assessed with a cytofluorimetric technique by using the bromodeoxyuridine (BrdU) nuclear labeling protocol. […] Following to 16-hour incubation at 37° C. under humidified atmosphere, 5% CO2, the cell proliferation was analyzed by a cytofluorirnetric technique. […] The cells were analyzed within 24 hours from their preparation by using a cytofluorimeter FACScalibur from Becton Dikinson Company and the analysis program CellQuest.
Results were expressed as cell proliferation index (P.I.), being calculated as ratio of the percentage of proliferating cells in the presence of stimulus and the percentage of the same in the absence of stimulation, A P.I. value greater than 2 was considered acceptable (cut-off value). […]

Phytohaemagglutinin [PHA]
cell proliferation index (P.I.): significantly higher; also recorded: greater than the cut-off value
